Reference: patent US8685469B2, “In vitro anti-sickling activity of betulinic acid, oleanolic acid and their derivatives” (University of KwaZulu-Natal, priority 2009, dated 2014)

Tested on: sickled blood cells (SS blood erythrocytes)
Assay: In vitro anti-sickling activity, Emmel test on SS blood
Type: cell-based
Settings: for Emmel Test Result: 2% sodium metabisulphite, 2 hours anaerobic, compounds diluted in NaCl 0.9%
Experimental: Blood samples were collected from “Centre de Medecine Mixte et d'Anémie SS” located in Kinshasa, Democratic Republic of Congo (DRC). The blood samples were first characterised by Hb electrophoresis on cellulose acetate gel, in order to confirm their SS nature, as previously reported by Mpiana et al., 2007^6. Confirmed SS blood samples were refrigerated at ˜4° C., and used for Emmel test.
A drop of physiological solution was put on a glass slide and a drop of SS blood was added on the physiological solution. One drop of 2% sodium metabisulphite solution was added on the slide glass which was hermetically covered using a cover glass with melted paraffin wax and kept covered for 2 hours in order to accelerate the sickling of the blood. After 2 hours in anaerobic conditions, the blood sample became deoxygenated and adopted sickle shape. Assay was observed under an optical microscope and the number of observed erythrocytes was determined using Thomas' cell (Courtejoie, J. and Hartaing, I, 1992)^7.
SS blood samples were contacted at different concentrations with diluted samples of the compounds (8), (9), (10), and (11) using physiological solution (NaCl 0.9%) as dilution solvent, according to Emmel's test procedure as reported above and optical measurements were taken.
Pictures were obtained with an optical microscope (motic). In order to convert the photonic micrograph image into a digital image, a Canon digital camera (Zoom X6) was used to digitize micrographs using Motic Images 200 version 1.3 software, on Windows XP. Thomas' cell was used to observe the number of erythrocytes. The results of the in vitro anti-sickling activity of betulinic acid (8), 3-acetoxybetulinic acid (11), oleanolic acid (9) and maslinic acid (10) are shown in Table 1.

For `C=C(C)[C@@H]1CC[C@]2(C(=O)O)CC[C@]3(C)[C@H](CC[C@@H]4[C@@]5(C)CC[C@H](O)C(C)(C)[C@@H]5CC[C@]43C)[C@@H]12` [DS/10/C/A, Betulinic acid], the “Emmel Test Result” value was “+++ (+++ = >70% normalisation of sickled blood cells.)”.
In the case of `C=C(C)[C@@H]1CC[C@]2(C(=O)O)CC[C@]3(C)[C@H](CC[C@@H]4[C@@]5(C)CC[C@H](OC(C)=O)C(C)(C)[C@@H]5CC[C@]43C)[C@@H]12` [DS/10/C/Ab, 3-acetoxybetulinic acid], the “Emmel Test Result” value is reported as “+++ (+++ = >70% normalisation of sickled blood cells.)”.
For `CC1(C)CC[C@]2(C(=O)O)CC[C@]3(C)C(=CC[C@@H]4[C@@]5(C)CC[C@H](O)C(C)(C)[C@@H]5CC[C@]43C)[C@@H]2C1` [DS/FS/1, Oleanolic acid], the “Emmel Test Result” value was “+ (+ = 10 to 50% normalisation of sickled blood cells.)” and the “normalisation of sickled blood cells” value (Emmel test, in vitro) was 10-50%.
With `CC1(C)CC[C@]2(C(=O)O)CC[C@]3(C)C(=CC[C@@H]4[C@@]5(C)C[C@@H](O)[C@H](O)C(C)(C)[C@@H]5CC[C@]43C)[C@@H]2C1` [DS/FS/2, Maslinic acid] the “Emmel Test Result” value was “+++ (+++ = >70% normalisation of sickled blood cells.)”.
